The values that follow come from paper PMC5756575, “In Vitro Biotransformation, Safety, and Chemopreventive Action of Novel 8-Methoxy-Purine-2,6-Dione Derivatives” (Applied Biochemistry and Biotechnology, 2017).

In data set [1] the test system is Vibrio harveyi BB7X. Nature of the data set: Vibrio harveyi antimutagenicity assay against NQNO, BB7X. The note with it: compound 40 ng/mL + NQNO 40 ng/mL; for Number of revertants per plate, Mean ± SD: antimutagenicity, NQNO line = NQNO as a single compound. Type of data set: cell-based. The text has this: (§1) Four Vibrio harveyi strains were used in this study: a wild-type BB7 (naturally found in the Baltic Sea) and three genetically modified strains, namely BB7M (obtained by the introduction of pAB1273 plasmid containing the genes mucA and mucB to enhance the error-prone DNA repair), BB7X (hypersensitive to UV radiation after genetic modification with Tn5TpMCS), and BB7XM (containing the two abovementioned modifications). These strains were kindly provided by Prof. G. Węgrzyn (Department of Molecular Biology, University of Gdańsk, Poland).
(§2) It causes point mutations at the genome as it induces G:C → A:T transitions in Vibrio harveyi strains and in other bacteria such as Escherichia coli and S. typhimurium. […] Next, its working solution was prepared in sterile water, being 40 ng/mL its final concentration.
(§3) Procedure followed in the V. harveyi antimutagenicity assay was similar to the mutagenicity method described before. […] The results were expressed as the inhibition percentage of mutagenic effect, which was calculated with the formula: 100 − [(R 1/R 2) × 100], where R 1 is the number of revertants per plate in the presence of both mutagen and tested substance, and R 2 is the number of revertants per plate in the presence of mutagen. […] S. typhimurium antimutagenicity assay was based on similar assumptions as the V. harveyi antimutagenicity test. In this case, the chemopreventive activity was determined at two concentrations of a tested compounds and a standard mutagen, i.e., 40 and 500 ng/mL.

Data set [2] concerns Vibrio harveyi BB7X. The conditions noted are these: 40 ng/mL; for MI (mutagenicity index): mutagenic if MI above 2.0; for Number of revertants per plate, Mean ± SD: mutagenicity. The procedure: (§4) From them, 0.2 mM working solutions were prepared by dilution with water. […] Working solutions were prepared by 1:100 dilution of stock solution in water, and final compound concentration assayed was 40 ng/mL.
as §1, §2
(§5) To perform the V. harveyi mutagenicity test, 10 μL of a working solution of the tested compound (100 μg/mL) were added to V. harveyi bacterial culture (OD600 = 0.1) in NaCl-containing BOSS liquid medium, being 40 ng/mL the final concentration of the tested compound. […] Then, an inoculum containing 5 × 10^6 cells was added to solid BOSS agar plate supplemented with neomycin sulfate at a final concentration of 100 μg/mL. Samples were left incubating 48 h at 30 °C, and revertant colonies were counted manually.

The test system of data set [3] is Vibrio harveyi BB7. The conditions noted are these: BB7, 40 ng/mL; for MI (mutagenicity index): mutagenic if MI above 2.0; for Number of revertants per plate, Mean ± SD: mutagenicity. The method, then: as §4, §1, §2, §5
The test system of data set [4] is Vibrio harveyi BB7M. The conditions noted are these: 40 ng/mL; for Number of revertants per plate, Mean ± SD: mutagenicity. The method, then:
as §4, §1, §2, §5

Data set [5] has as its system Cunninghamella blakesleeana 1908 DMS. The experiment in a line: Cunninghamella biotransformation assay, C. blakesleeana. It counts as in vitro ADME. The conditions noted are these: 7-day incubation; for % of compound/metabolite in C. blakesleeana: 0.5 mg/mL, LC-MS/MS; for % of tested (parental) compound metabolized at the end of experiment: C. blakesleeana. The procedure:
Three different strains of Cunninghamella were used: Cunninghamella echinulata NRRL 1384, Cunninghamella blakesleeana 1908 DMS, and Cunninghamella elegans 1906 DMS. The first was provided by Dr. A.J. Carnell (University of Liverpool, UK), whereas the two remaining were purchased from Deutsche Sammlung von Mikroorganismen und Zellkulturen GmbH (DMSZ, Braunschweig, Germany).
Cunninghamella strains were cultivated on solid potato dextrose agar (PDA) plates at 28 °C. After 4 days, a liquid fermentation basal medium was prepared by the addition of 6 g of D-glucose, 1.5 g of NaCl, 1.5 g of yeast extract from Saccharomyces cerevisiae, and 1.5 g of K2HPO4 to 300 mL of distilled water. Aliquots of 24.5 mL of medium were inoculated with 300 μL of suspension of fungal spores obtained after wetting colonies in PDA. The fungi were incubated with shaking until the formation of spherical clumps.
Compounds 2–4 were evaluated in this experiment. Once microorganisms formed spherical clumps in the preliminary incubation, the corresponding tested compound was added to the broth and the mixture was incubated for 7 days. Two control experiments were also performed, in the absence of compound and fungus, respectively. Biotransformation progress was monitored by TLC and by liquid chromatography electrospray ionization-tandem mass spectrometry (LC-MS/MS). Monitoring was performed at four different incubation times: 30 min, 3 days, 5 days, and 7 days.
To analyze metabolites in LC-MS/MS, an aliquot of 500 μL of filtered sample was taken and extracted with 500 μL of dichloromethane. The organic fraction was dried with sodium sulfate, filtered, and evaporated. The obtained residue was analyzed in LC-MS/MS. At the end of experiment, all the remaining medium was extracted with 25 mL of dichloromethane after separating the fungal clumps by filtration over cellulose filters.
Agilent 1100 HPLC system (Agilent Technologies, Waldbronn, Germany) equipped with a Xbridge™ C18 analytical column (2.1 × 30 mm, […]; Waters, Dublin, Ireland) was used in the chromatographic separation of LC-MS/MS analysis. An elution gradient of acetonitrile and water, with 0.1% of formic acid, was used as a mobile phase. MS spectra were taken at Applied Biosystems MDS Sciex API 200 triple quadrupole mass analyzer (Concord, Ontario, Canada) with an electrospray ionization (ESI) interface between HPLC and MS.

Data set [6] concerns Salmonella typhimurium TA100. Nature of the data set: S. typhimurium antimutagenicity assay against NQNO. The conditions noted are these: for Number of revertants per plate, Mean ± SD: antimutagenicity, NQNO line = NQNO as a single compound. It counts as cell-based.
Excerpt: In the Ames test, Salmonella typhimurium TA100 strain was used. This strain has a base-pair substitution that can be reverted by mutations at GC pairs. In addition, it contains mutations at uvrB-bio and rfa genes to eliminate excision repair mechanisms and to make the bacteria more permeable to chemicals, respectively. Finally, TA100 also includes pKM101 plasmid, which enhances both chemical and UV-induced mutagenesis via an increase in the error-prone recombinational DNA repair pathway. TA100 strain of S. typhimurium was provided by Dr. T. Nohmi (Division of Genetics and Mutagenesis, National Institute of Hygienic Sciences, Tokyo, Japan). V. harveyi and S. typhimurium bacterial cultures were maintained at 30 and 37 °C, respectively.
as §2, §3

Data set [7] deals with mice. Also on record: method as in PMID 25443727, PMID 25560569. The conditions noted are these: formalin test in mice; cited from earlier work.
[8] abbreviates: TA100, compound and NQNO 40 ng/mL.
Setting [9] is: TA100, compound and NQNO 500 ng/mL.

Like-named read-outs stand apart in the source and are kept apart here.

With `COc1nc2c(c(=O)n(C)c(=O)n2C)n1CCCC(=O)NCc1ccccc1` [Compound 3, N-benzyl-4-(8-methoxy-1,3-dimethyl-2,6-dioxo-purin-7-yl)butanamide], the “Number of revertants per plate, Mean ± SD” value turned out to be 45 ± 9 in data set [1]; 35 ± 4 in data set [2]; 18 ± 6 in data set [3]; 35 ± 5 in data set [4]; 4 ± 2 in data set [6] (setting [8]); 8 ± 3 in data set [6] (setting [9]). For the same compound, the “% inhibition of NQNO mutagenicity” value is 58% in data set [1], 96% in data set [6] (setting [8]) and 92% in data set [6] (setting [9]). Further, the “MI (mutagenicity index)” value in data set [2] came to 1.6; in data set [3], 1.4; in data set [4] (mutagenic if MI above 2.0), 1.3. Besides, the “% of compound/metabolite in C. blakesleeana” value in data set [5] is 95.4%. The “% of tested (parental) compound metabolized at the end of experiment” value in data set [5] stood at 4.6%.

Take `COc1nc2c(c(=O)n(C)c(=O)n2C)n1CCCC(=O)N1CCN(c2ccccc2)CC1` [Compound 4, 8-methoxy-1,3-dimethyl-7-[4-oxo-4-(4-phenylpiperazin-1-yl)butyl]purine-2,6-dione]: the “Number of revertants per plate, Mean ± SD” value in data set [1] is 47 ± 10; in data set [2], 27 ± 7; in data set [3] it was 10 ± 4; in data set [4], 42 ± 11; in data set [6] (setting [8]), 6 ± 2; in data set [6] (setting [9]), 11 ± 3. Besides, the “% inhibition of NQNO mutagenicity” value was determined as 56% in data set [1], 93% in data set [6] (setting [8]) and 88% in data set [6] (setting [9]). For the same compound, in data set [7], the “fold higher activity than acetylsalicylic acid” value is 36 fold. Besides, the results for the “MI (mutagenicity index)” value in data set [2] and in data set [3] were 1.2 and 0.8, respectively. Further, the “% of compound/metabolite in C. blakesleeana” value in data set [5] amounted to 33.3%. In addition, the “% of tested (parental) compound metabolized at the end of experiment” value in data set [5] amounted to 66.6%.
